Columns and labels:
[1] = Water activity of humectant solutions (AquaLab CX-2); type: physicochemical
Experimental: (§1) Water activity (aw) is a measure of the amount of free water available to a microorganism to support growth. Water activity expresses the active portion of the water content as opposed to the total moisture content, which includes “bound water.” The measurements were conducted using the AquaLab CX-2 by Decagon Devices, Inc. by utilizing the chilled mirror/dew point hygrometric methodology for determining water activity. The cellulose sponge was cut into a disk having a 1.5″ inch diameter and 1/16 inch thick.
A commercially available magnesium chloride hexahydrate (MgCl2.6H2O) (EMD Chemical Company, Gibbstown, N.J.), sodium chloride (NaCl) (Fisher Scientific Company, Fair Lawn, N.J.), potassium chloride (KCl) (EMD Chemical Company, Gibbstown, N.J.), and glycerol (EMD Chemical Company, Gibbstown, N.J.) was mixed to obtain a desired concentration. The solution was measured for water activity using the AquaLab CX-2 by Decagon Devices, Inc. The water activity for those solutions is presented in Table 7.

[2] = Water activity of humectants in cellulose sponges (AquaLab CX-2); type: physicochemical
Experimental: Water Activity (aw) in the Cellulose Sponges
as §1
A prepared cellulose sponge was soaked for 20 minutes in one of the MgCl2 or NaCl humectant solutions from Example 3. After soaking, the cellulose sponge was squeezed out between squeeze rolls and then immediately placed into airtight plastic bags. The samples were tested for water activity within 24 hours.

## O.O.O.O.O.O.[Cl-].[Cl-].[Mg+2] [MgCl2, magnesium chloride hexahydrate (MgCl2.6H2O)]
[1]; solution concentration 8%
  Water Activity of humectant solution: 0.944
[1]; solution concentration 10%
  Water Activity of humectant solution: 0.926
[1]; solution concentration 12%
  Water Activity of humectant solution: 0.904
[1]; solution concentration 14%
  Water Activity of humectant solution: 0.876
[1]; solution concentration 16%
  Water Activity of humectant solution: 0.847
[1]; solution concentration 18%
  Water Activity of humectant solution: 0.841
[1]; solution concentration 20%
  Water Activity of humectant solution: 0.768
[2]; 10 wt. % of input solution
  Water Activity of humectant in cellulose sponge: 0.913
[2]; 12 wt. % of input solution
  Water Activity of humectant in cellulose sponge: 0.896
[2]; 14 wt. % of input solution
  Water Activity of humectant in cellulose sponge: 0.890

## [Cl-].[Na+] [NaCl, sodium chloride]
[1]; solution concentration 8%
  Water Activity of humectant solution: 0.949
[1]; solution concentration 10%
  Water Activity of humectant solution: 0.936
[1]; solution concentration 12%
  Water Activity of humectant solution: 0.919
[1]; solution concentration 16%
  Water Activity of humectant solution: 0.887
[1]; solution concentration 20%
  Water Activity of humectant solution: 0.842
[2]; 10 wt. % of input solution
  Water Activity of humectant in cellulose sponge: 0.926
[2]; 12 wt. % of input solution
  Water Activity of humectant in cellulose sponge: 0.921
[2]; 14 wt. % of input solution
  Water Activity of humectant in cellulose sponge: 0.900
[2]; 16 wt. % of input solution
  Water Activity of humectant in cellulose sponge: 0.881

## [Cl-].[K+] [KCl, potassium chloride]
[1]; solution concentration 8%
  Water Activity of humectant solution: 0.952
[1]; solution concentration 10%
  Water Activity of humectant solution: 0.950
[1]; solution concentration 12%
  Water Activity of humectant solution: 0.938
[1]; solution concentration 14%
  Water Activity of humectant solution: 0.928
[1]; solution concentration 16%
  Water Activity of humectant solution: 0.915
[1]; solution concentration 18%
  Water Activity of humectant solution: 0.904
[1]; solution concentration 20%
  Water Activity of humectant solution: 0.891
[1]; solution concentration 22%
  Water Activity of humectant solution: 0.875
[1]; solution concentration 24%
  Water Activity of humectant solution: 0.859

## OCC(O)CO [Glycerol, glycerol]
[1]; solution concentration 8%
  Water Activity of humectant solution: 0.975
[1]; solution concentration 10%
  Water Activity of humectant solution: 0.971
[1]; solution concentration 12%
  Water Activity of humectant solution: 0.966
[1]; solution concentration 14%
  Water Activity of humectant solution: 0.962
[1]; solution concentration 16%
  Water Activity of humectant solution: 0.955
[1]; solution concentration 18%
  Water Activity of humectant solution: 0.950
[1]; solution concentration 20%
  Water Activity of humectant solution: 0.944
[1]; solution concentration 22%
  Water Activity of humectant solution: 0.939
[1]; solution concentration 24%
  Water Activity of humectant solution: 0.934
[1]; solution concentration 50%
  Water Activity of humectant solution: 0.811

## O=C([O-])[O-].[K+].[K+] [Formulation K2CO3]
[1]; solution concentration 8%
  Water Activity of humectant solution: 0.973
[1]; solution concentration 10%
  Water Activity of humectant solution: 0.960
[1]; solution concentration 12%
  Water Activity of humectant solution: 0.957
[1]; solution concentration 16%
  Water Activity of humectant solution: 0.943
[1]; solution concentration 20%
  Water Activity of humectant solution: 0.925

— patent US8304454B2, “Antimicrobial cellulose sponge and method of making” (3M Innovative Properties Company, priority 2007, dated 2012)
